Data taken from the Kinase Knowledgebase extract (Sharma et al. 2016).

The compounds below were run against MAPK14 (human) (UniProt Q16539) (assay: Inhibtion of MAPK14 Kinase Activity).
Chain of MAPK14 (human) (Q16539 whole entry, looked up): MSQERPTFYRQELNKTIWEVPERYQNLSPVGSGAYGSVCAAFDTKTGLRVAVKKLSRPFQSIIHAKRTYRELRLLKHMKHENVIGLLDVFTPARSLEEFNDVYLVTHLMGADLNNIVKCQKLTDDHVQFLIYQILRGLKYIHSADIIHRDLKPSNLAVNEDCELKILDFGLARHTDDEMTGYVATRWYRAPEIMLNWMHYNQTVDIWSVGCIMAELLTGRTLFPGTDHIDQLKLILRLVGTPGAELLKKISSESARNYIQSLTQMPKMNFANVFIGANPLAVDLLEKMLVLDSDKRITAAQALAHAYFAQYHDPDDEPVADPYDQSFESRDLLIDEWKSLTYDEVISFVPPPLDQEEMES

Row | Structure (SMILES) | IC50 [nM]
1 | Cc1cc(C(=O)c2ccc(=O)n(-c3c(F)cc(OCCCN[C@@H](Cc4ccccc4)C(=O)OC4CCCC4)cc3F)c2N)ccc1F | < 100
2 | Nc1c(C(=O)c2ccc(F)cc2F)ccc(=O)n1-c1c(F)cc(OCCCN[C@H](C(=O)OC2Cc3ccccc3C2)c2ccccc2)cc1F | < 100
3 | CC(C)C[C@H](NCCCOc1ccc(-n2c(N)c(C(=O)c3ccc(F)cc3)ccc2=O)cc1)C(=O)OC1CCCC1 | < 100
4 | CC(C)C[C@H](NCCCOc1cc(F)c(-n2c(N)c(C(=O)c3ccc(F)cc3F)ccc2=O)c(F)c1)C(=O)OC1CCCC1 | < 100
5 | Cc1cc(C(=O)c2ccc(=O)n(-c3c(F)cc(OCCCN[C@@H](CC(C)C)C(=O)O)cc3F)c2N)ccc1F | < 100
6 | CC(C)C[C@H](NCCCOc1cc(F)c(-n2c(N)c(C(=O)c3ccc(F)cc3)ccc2=O)c(F)c1)C(=O)OC1CCCC1 | < 100
7 | Nc1c(C(=O)c2ccc(F)cc2F)ccc(=O)n1-c1c(F)cc(OCCCN[C@H](C(=O)OC2CCCC2)c2ccccc2)cc1F | < 100
8 | Nc1c(C(=O)c2ccc(F)cc2)ccc(=O)n1-c1c(F)cc(OC2CCC(N[C@H](C(=O)O)c3ccccc3)CC2)cc1F (stereo partly drawn) | < 100
9 | Nc1c(C(=O)c2ccc(F)cc2F)ccc(=O)n1-c1c(F)cc(OCCCN[C@H](C(=O)OC2CCCC2)C2CCCCC2)cc1F | < 100
10 | CC(C)(C)OC(=O)[C@H](Cc1ccccc1)NCCCOc1cc(F)c(-n2c(N)c(C(=O)c3ccc(F)cc3F)ccc2=O)c(F)c1 | < 100
11 | CC(C)C[C@H](NCc1cc(F)c(-n2c(N)c(C(=O)c3ccc(F)cc3F)ccc2=O)c(F)c1)C(=O)O | < 100
12 | CC(C)C[C@H](NCCCCCOc1cc(F)c(-n2c(N)c(C(=O)c3ccc(F)cc3F)ccc2=O)c(F)c1)C(=O)OC(C)(C)C | < 100
13 | Nc1c(C(=O)c2ccc(F)cc2)ccc(=O)n1-c1c(F)cc(CN[C@@H](Cc2ccccc2)C(=O)OC2CCCC2)cc1F | < 100
14 | Nc1c(C(=O)c2ccc(F)cc2)ccc(=O)n1-c1c(F)cc(OC2CCC(N[C@@H](Cc3ccccc3)C(=O)OC3CCCC3)CC2)cc1F (stereo partly drawn) | < 100
15 | Nc1c(C(=O)c2ccc(F)cc2F)ccc(=O)n1-c1c(F)cc(OCCCN[C@@H](C(=O)OC2CCCC2)c2ccccc2)cc1F | < 100
16 | CC(C)C[C@@H](NCCCOc1cc(F)c(-n2c(N)c(C(=O)c3ccc(F)cc3F)ccc2=O)c(F)c1)C(=O)OC(C)(C)C | < 100
17 | Nc1c(C(=O)c2ccc(F)cc2)ccc(=O)n1-c1c(F)cc(OCCCN[C@H](C(=O)OC2CCCC2)c2ccccc2)cc1F | < 100
18 | Nc1c(C(=O)c2ccc(F)cc2)ccc(=O)n1-c1c(F)cc(OCCCN[C@@H](Cc2ccccc2)C(=O)OC2CCCC2)cc1F | < 100
19 | CC(C)C[C@H](NCCCOc1ccc(-n2c(N)c(C(=O)c3ccc(F)cc3)ccc2=O)cc1)C(=O)O | < 100

Row | Structure (SMILES) | IC50 [nM]
20 | CC(C)C[C@@H](NCCCOc1cc(F)c(-n2c(N)c(C(=O)c3ccc(F)cc3F)ccc2=O)c(F)c1)C(=O)OC1CCCC1 | < 100
21 | Nc1c(C(=O)c2ccc(F)cc2F)ccc(=O)n1-c1c(F)cc(OCCCN[C@H](C(=O)O)c2ccccc2)cc1F | < 100
22 | Nc1c(C(=O)c2ccc(F)cc2)ccc(=O)n1-c1ccc(OCCCN[C@@H](Cc2ccccc2)C(=O)O)cc1 | < 100
23 | O=C(c1ccc(F)cc1)c1ccc(=O)[nH]c1Nc1c(F)cc(CN[C@@H](Cc2ccccc2)C(=O)OC2CCCC2)cc1F | < 100
24 | Nc1c(C(=O)c2ccc(F)cc2F)ccc(=O)n1-c1ccc(CN[C@@H](Cc2ccccc2)C(=O)OC2CCCC2)cc1 | < 100
25 | Nc1c(C(=O)c2ccc(F)cc2)ccc(=O)n1-c1c(F)cc(OC2CCC(N[C@H](C(=O)OC3CCCC3)c3ccccc3)CC2)cc1F (stereo partly drawn) | < 100
26 | CC(C)C[C@H](NCCCOc1ccc(-n2c(N)c(C(=O)c3ccc(F)cc3F)ccc2=O)cc1)C(=O)O | < 100
27 | Nc1c(C(=O)c2ccc(F)cc2)ccc(=O)n1-c1ccc(OCCCN[C@H](C(=O)O)c2ccccc2)cc1 | < 100
28 | CC(C)C[C@H](NCCCOc1cc(F)c(-n2c(N)c(C(=O)c3ccc(F)cc3F)ccc2=O)c(F)c1)C(=O)OCCN1CCOCC1 | < 100
29 | CC(C)C[C@H](NCc1ccc(-n2c(N)c(C(=O)c3ccc(F)cc3F)ccc2=O)cc1)C(=O)OC1CCCC1 | < 100
30 | Cc1cc(C(=O)c2ccc(=O)n(-c3ccc(CN[C@@H](Cc4ccccc4)C(=O)O)cc3)c2N)ccc1F | < 100
31 | Nc1c(C(=O)c2ccc(F)cc2F)ccc(=O)n1-c1ccc(CN[C@@H](Cc2ccccc2)C(=O)O)cc1 | < 100
32 | NCC[C@H](NCCCOc1cc(F)c(-n2c(N)c(C(=O)c3ccc(F)cc3F)ccc2=O)c(F)c1)C(=O)OC1CCCC1 | < 100
33 | CC(C)C[C@@H](NCCCOc1cc(F)c(-n2c(N)c(C(=O)c3ccc(F)cc3F)ccc2=O)c(F)c1)C(=O)O | < 100
34 | Nc1c(C(=O)c2ccc(F)cc2F)ccc(=O)n1-c1c(F)cc(OCCCN[C@H](C(=O)OC2CC3CCC2C3)c2ccccc2)cc1F (stereo partly drawn) | < 100
35 | CC(C)(C)OC(=O)[C@@H](NCCCOc1cc(F)c(-n2c(N)c(C(=O)c3ccc(F)cc3F)ccc2=O)c(F)c1)c1ccccc1 | < 100
36 | Nc1c(C(=O)c2ccc(F)cc2F)ccc(=O)n1-c1c(F)cc(OCCCN[C@@H](C(=O)O)c2ccccc2)cc1F | < 100
37 | Cc1cc(C(=O)c2ccc(=O)n(-c3c(F)cc(OCCCN[C@@H](CC(C)C)C(=O)OC4CCCC4)cc3F)c2N)ccc1F | < 100

Further lines, results first:

Row | IC50 [nM] | Structure (SMILES)
38 | < 100 | Cc1cc(C(=O)c2ccc(=O)n(-c3ccc(OCCCN[C@@H](CC(C)C)C(=O)O)cc3)c2N)ccc1F
39 | < 100 | CC(C)(C)OC(=O)[C@@H](NCCCOc1cc(F)c(-n2c(N)c(C(=O)c3ccc(F)cc3)ccc2=O)c(F)c1)c1ccccc1
40 | < 100 | Nc1c(C(=O)c2ccc(F)cc2)ccc(=O)n1-c1ccc(CCN[C@H](C(=O)O)c2ccccc2)cc1
41 | < 100 | CC(C)C[C@H](NCCCOc1ccc(-n2c(N)c(C(=O)c3ccc(F)cc3F)ccc2=O)cc1)C(=O)OC(C)(C)C
42 | < 100 | Cc1cc(C(=O)c2ccc(=O)n(-c3ccc(OCCCN[C@@H](Cc4ccccc4)C(=O)OC4CCCC4)cc3)c2N)ccc1F
43 | < 100 | CC(C)C[C@H](NCCCOc1cc(F)c(-n2c(N)c(C(=O)c3ccc(F)cc3F)ccc2=O)c(F)c1)C(=O)OC(C)(C)C
44 | < 100 | CC(C)C[C@H](NC1CCC(Oc2cc(F)c(-n3c(N)c(C(=O)c4ccc(F)cc4)ccc3=O)c(F)c2)CC1)C(=O)OC1CCCC1 (stereo partly drawn)
45 | < 100 | Nc1c(C(=O)c2ccc(F)cc2F)ccc(=O)n1-c1c(F)cc(OCCCN[C@@H](Cc2ccccc2)C(=O)OC2CCCC2)cc1F
46 | < 100 | Cc1cc(C(=O)c2ccc(=O)n(-c3ccc(OCCCN[C@@H](Cc4ccccc4)C(=O)O)cc3)c2N)ccc1F
47 | < 100 | Nc1c(C(=O)c2ccc(F)cc2)ccc(=O)n1-c1c(F)cc(OCCCN[C@H](C(=O)O)c2ccccc2)cc1F
48 | < 100 | CC(C)C[C@H](NCCCOc1cc(F)c(-n2c(N)c(C(=O)c3ccc(F)cc3F)ccc2=O)c(F)c1)C(=O)O
49 | < 100 | Nc1c(C(=O)c2ccc(F)cc2F)ccc(=O)n1-c1ccc(OCCCN[C@H](C(=O)O)c2ccccc2)cc1
50 | < 100 | Nc1c(C(=O)c2ccc(F)cc2)ccc(=O)n1-c1c(F)cc(CN[C@@H](Cc2ccccc2)C(=O)O)cc1F
51 | < 100 | CC(C)C[C@H](NCCCCCOc1cc(F)c(-n2c(N)c(C(=O)c3ccc(F)cc3)ccc2=O)c(F)c1)C(=O)O
52 | < 100 | Nc1c(C(=O)c2ccc(F)cc2)ccc(=O)n1-c1c(F)cc(OC2CCC(N[C@@H](Cc3ccccc3)C(=O)O)CC2)cc1F (stereo partly drawn)
53 | < 100 | Nc1c(C(=O)c2ccc(F)cc2)ccc(=O)n1-c1ccc(OCCCN[C@@H](Cc2ccccc2)C(=O)OC2CCCC2)cc1
